From patent publication US20220125745A1, “PHARMACEUTICAL COMPOSITION FOR CO-ADMINISTRATION OF ACIDOSIS-INDUCING DRUG” (HAIM BIO CO., LTD., priority 2018, published 2022)
Where two headings read alike, the source gives them in different places.

Key:
[1] = tested on: L132 cells (normal cells); assay: Lactate assay (luminescence) in L132 cells, candidate substance alone or combined with a substance that causes lactic acidosis; format: cell-based; settings: L132; for activity at 50 µM: Homo sapiens
Description: (§1) To identify the effects of administration of the candidate substances for lactic acidosis treatment as described in Example 1 in combination with the above-mentioned substances that cause lactic acidosis, A549 cells (cancer cells) or L132 cells (normal cells) were respectively seeded in 96- or 24-well plates at a concentration of 1×10^4 or 3×10^5 cells/well, and incubation was performed overnight. Administration of the candidate substance for acidosis treatment in combination with the substance that causes lactic acidosis was performed and incubation was further performed for 24 hours. For the candidate substances for acidosis treatment, each substance was administered at a uniform concentration of 50 μM; and for the substances that cause lactic acidosis, metformin was administered at 1 to 100 μM, isoniazid was administered at 1 to 500 μM, berberine was administered at 10 μM, linezolid was administered at 200 μM, and phenformin was administered at 100 μM. All substances were dissolved in dimethyl sulfoxide (DMSO, Sigma-Aldrich Corporation, St. Louis, Mo., USA), and the substances to be administered in combination were administered simultaneously. Subsequently, 50 μl of the cell culture solution obtained by being diluted with Dulbecco's Phosphate-Buffered Saline (DPBS; Wellgene, Korea), and 50 μl of the lactate assay reaction buffer (Promega, Madison, Wis., USA) were mixed and the mixture was added in a 96-well plate. Reaction was allowed to proceed at room temperature for 1 hour. Then, luminescence was measured with a spectrophotometer (Synergy HTX Multi-Reader; BioTek, Winooski, Vt., USA). At the same time, the number of cells in each sample was measured with a cell viability analysis kit (Cell Counting Kit-8; Dojindo Molecular Technologies, Inc., Kumamoto, Japan), and calculation was performed so that the lactic acid measurement value in each sample could be compared with that in the negative control for the same number of cells.

[2] = tested on: A549 cells (cancer cells); assay: Lactate assay (luminescence) in A549 cells, candidate substance alone or combined with a substance that causes lactic acidosis; format: cell-based; settings: A549; for activity at 50 µM: Homo sapiens
Description: as §1

[3] = candidate 50 μM alone, no berberine, 24 h, vs negative control, mean ± SEM, read-out: Luminescence intensity (%), Berberine (10 μM) −
[4] = candidate 50 μM alone, no linezolid, 24 h, vs negative control, mean ± SEM, read-out: Luminescence intensity (%), Linezolid (200 μM) −
[5] = candidate 50 μM alone, no phenformin, 24 h, vs negative control, mean ± SEM, read-out: Luminescence intensity (%), Phenformin (100 μM) −
[6] = candidate 50 μM + berberine 10 μM, relative to berberine alone (PC)
[7] = candidate 50 μM + linezolid 200 μM, relative to linezolid alone (PC)
[8] = candidate 50 μM + phenformin 100 μM, relative to phenformin alone (PC)
[9] = candidate 50 μM alone, no berberine, 24 h, vs negative control, mean ± SEM
[10] = candidate 50 μM alone, no linezolid, 24 h, vs negative control, mean ± SEM
[11] = candidate 50 μM alone, no phenformin, 24 h, vs negative control, mean ± SEM

Row | Structure (SMILES) | activity at 50 µM [1, 3] | activity at 50 µM [1, 4] | activity at 50 µM [1, 5] | Lactic acid value vs. PC (%) [1, 6] | Lactic acid-decreasing rate vs. PC (%) [1, 6] | Lactic acid value vs. PC (%) [1, 7] | Lactic acid-decreasing rate vs. PC (%) [1, 7] | Lactic acid value vs. PC (%) [1, 8] | Lactic acid-decreasing rate vs. PC (%) [1, 8] | Lactic acid value vs. PC (%) [2, 6] | Lactic acid-decreasing rate vs. PC (%) [2, 6] | Lactic acid value vs. PC (%) [2, 7] | Lactic acid-decreasing rate vs. PC (%) [2, 7] | Lactic acid value vs. PC (%) [2, 8] | Lactic acid-decreasing rate vs. PC (%) [2, 8] | activity at 50 µM [2, 3] | activity at 50 µM [2, 4] | activity at 50 µM [2, 5] | Luminescence intensity (%), Linezolid (200 μM) − [1, 10] | also measured
1 | CC(C)=CCCC(C)=CC=O [Citral] | 102.4 ± 0.98% | 102.4 ± 0.98% | 102.4 ± 0.98% | 102.03% | −2.03% | 102.02% | −2.02% | 99.57% | 0.43% | 95.67% | 4.33% | 103.20% | −3.20% | 93.80% | 6.20% | 100.5 ± 0.81% | 100.5 ± 0.81% | 100.5 ± 0.81% |  | 
2 | CCN(CC)c1ccc(C=O)cc1 [DEAB, Diethylaminobenzaldehyde] |  |  |  | 106.10% | −6.10% | 105.21% | −5.21% | 92.79% | 7.21% | 91.95% | 8.05% | 87.66% | 12.34% | 94.28% | 5.72% |  |  |  | 93.41±2.71% | Luminescence intensity (%), Berberine (10 μM) − [1, 9]: 93.41 ± 2.71 %; Luminescence intensity (%), Phenformin (100 μM) − [1, 11]: 93.41 ± 2.71 %; Increase of lactic acid level as compared to the positive control group ([1]; in combination with linezolid, stated in text as an increase): 5.21%; Luminescence intensity (%), Berberine (10 μM) − [2, 9]: 96.72 ± 0.78 %; Luminescence intensity (%), Linezolid (200 μM) − [2, 10]: 96.72 ± 0.78 %; Luminescence intensity (%), Phenformin (100 μM) − [2, 11]: 96.72 ± 0.78 %
3 | CCN(CC)C(=S)SSC(=S)N(CC)CC [Disulfiram] | 93.4 ± 2.64% | 93.4 ± 2.64% | 93.4 ± 2.64% | 69.16% | 30.84% | 87.16% | 12.84% | 78.21% | 21.79% | 75.67% | 24.33% | 80.93% | 19.07% | 90.83% | 9.17% | 86.1 ± 1.66% | 86.1 ± 1.66% | 86.1 ± 1.66% | 93.39 ± 2.64 % | 
